SMILES strings stand for the structures. Marks after values point to notes of the source that are not given here.

Consider two compounds from US20150010928A1, “MEANS AND METHODS FOR ASSESSING AN ENDOCRINE DISEASE OR DISORDER” (priority 2012, published 2015).

The series concerns male rats. Description: Plasma metabolite profiling (GC-MS, LC-MS, SPE-LC-MS) in male rats dosed once daily over 28 days (OECD 407). The following applies: for Cholesterol / Choline plasmalogen No 02 / Lignoceric acid (C24:0) / Sphingomyelin (d18:1, C16:0) / Sphingomyelin (d18:2, C16:0) / erythro-Sphingosine (d18:1): high dose, Table 14b; for Glucose, ratio versus control / Lysophosphatidylcholine (C20:4), ratio versus control / Threonic acid, ratio versus control: male rats, plasma, low dose. It counts as in vivo, rat. The procedure:
Each dose group in the studies consisted of five rats per sex. Additional groups of each 5 male and female animals served as controls. […] All animals of the animal population were kept under the same constant temperature (20-24±3° C.) and the same constant humidity (30-70%). The animals of the animal population were fed ad libitum. The food to be used was essentially free of chemical or microbial contaminants. Drinking water was also offered ad libitum. Accordingly, the water was free of chemical and microbial contaminants as laid down in the European Drinking Water Directive 98/83/EG. The illumination period was 12 hours light followed by 12 hours darkness (12 hours light, from 6:00 to 18:00, and 12 hours darkness, from 18:00 to 6:00). […] The test substances (compounds) in the Tables 1 to 17 below were dosed and administered as described in the Table 18.
In the morning of day 7, 14, and 28, blood was taken from the retroorbital venous plexus from fasted anaesthetized animals. From each animal, 1 ml of blood was collected with EDTA as anticoagulant. The samples were centrifuged for generation of plasma. All plasma samples were covered with a N2 atmosphere and then stored at −80° C. until analysis.
For mass spectrometry-based metabolite profiling analyses plasma samples were extracted and a polar and a non-polar (lipid) fraction was obtained. For GC-MS analysis, the non-polar fraction was treated with methanol under acidic conditions to yield the fatty acid methyl esters. Both fractions were further derivatised with O-methyl-hydroxyamine hydrochloride and pyridine to convert Oxogroups to O-methyloximes and subsequently with a silylating agent before analysis. In LC-MS analysis, both fractions were reconstituted in appropriate solvent mixtures. HPLC was performed by gradient elution on reversed phase separation columns. Mass spectrometric detection which allows target and high sensitivity MRM (Multiple Reaction Monitoring) profiling in parallel to a full screen analysis was applied as described in WO2003073464.
Steroids and their metabolites were measured by online SPE-LC-MS (Solid phase extraction-LC-MS).
Following comprehensive analytical validation steps, the data for each analyte were normalized against data from pool samples. These samples were run in parallel through the whole process to account for process variability. The significance of treatment group values specific for sex, treatmentduration and metabolite was determined by comparing means of the treated groups to the means of the respective untreated control groups using WELCH-test and quantified with treatment ratios versus control and p-values.
The identification of the most important biomarkers per toxicity pattern was done by a ranking of the analytes in the tables below. Therefore the metabolic changes in reference treatments of a given pattern (shown in the table) were compared with changes of the same metabolite in other unrelated treatments. […] The maximum absolute value of the respective TVALUE was taken to indicate the most important metabolite for the pattern.

Regarding `OCCNCCO` [Diethanolamine], where the note is “m7”, the Cholesterol was 0.75; the “Choline plasmalogen No 02” value turned out to be 0.89; the “Lignoceric acid (C24:0)” value worked out at 0.7; the “Sphingomyelin (d18:1, C16:0)” value was 0.68. For the setting “m7”, the “Sphingomyelin (d18:2, C16:0)” value was 0.74 and the “erythro-Sphingosine (d18:1)” value worked out at 0.62. Moreover, for the setting “m14”, the Cholesterol came out at 0.72; the “Choline plasmalogen No 02” value worked out at 0.68; the “Lignoceric acid (C24:0)” value stood at 0.68; the “Sphingomyelin (d18:1, C16:0)” value came to 0.71. For the same compound, where the note is “m14”, the “Sphingomyelin (d18:2, C16:0)” value amounted to 0.73 and the “erythro-Sphingosine (d18:1)” value was found to be 0.58. Moreover, under “m28”, the Cholesterol is reported as 0.69; the “Choline plasmalogen No 02” value came to 0.74; the “Lignoceric acid (C24:0)” value is listed as 0.67; the “Sphingomyelin (d18:1, C16:0)” value is 0.7. Also, under “m28”, the “Sphingomyelin (d18:2, C16:0)” value turned out to be 0.63 and the “erythro-Sphingosine (d18:1)” value amounted to 0.52.
Regarding `OC(c1ccc(Cl)cc1)(c1cncnc1)c1ccccc1Cl` (stereo not drawn) [Fenarimol], under “day 7”, the “Glucose, ratio versus control” value was 0.9; the “Lysophosphatidylcholine (C20:4), ratio versus control” value was 0.99; the “Threonic acid, ratio versus control” value is reported as 1.37 *. For the setting “day 14”, the “Glucose, ratio versus control” value is reported as 0.9 *; the “Lysophosphatidylcholine (C20:4), ratio versus control” value is on record as 0.96 *; the “Threonic acid, ratio versus control” value was 1.3 *. Also, for the setting “day 28”, the “Glucose, ratio versus control” value is given as 0.91 *; the “Lysophosphatidylcholine (C20:4), ratio versus control” value was 0.97 *; the “Threonic acid, ratio versus control” value was 1.34 *.
